The record followed here is US11358952B2, “Substituted 4-aminoisoindoline-1,3-dione compounds, compositions thereof, and methods of treatment therewith” (Celgene Corporation, priority 2018, dated 2022).

In this assay the test system is SU-DHL-4 cell line. Nature of the assay: SU-DHL-4 cell proliferation assay (Cell Titer-Glo viability). The format is cell-based. To be noted: Homo sapiens; cell viability IC50 activity level, DLBCL cell line SU-DHL-4, 120 hours post-treatment; read-out: SU-DHL-4 Act. In a few lines:
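SU-DHL-4 cells (500/well, RPMI-1640 + 10% FBS) exposed to 20-point compound dilutions (0.5 nM–10 μM, 0.1% DMSO) for 120 h at 37°C, 5% CO2. Viability measured by Cell Titer-Glo luminescence at t0 and at 120 h. IC50 is the concentration giving 50% of DMSO control, from a four-parameter logistic fit.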
(In general: ATP-based viability assays read luminescence as a measure of living cells.)
`CC(C)(C)C1CCN(Cc2ccc(CNc3cccc4c3C(=O)N(C3CCC(=O)NC3=O)C4=O)c(F)c2)CC1` (stereo not shown) [Cpd 94, 4-(4-((4-tert-butylpiperidin-1-yl)methyl)-2-fluorobenzylamino)-2-(2,6-dioxopiperidin-3-yl)isoindoline-1,3-dione]: the IC50 was < 200 nM. For the compound `O=C1CCC(N2C(=O)c3cccc(NCc4ccc(CN5CCC6(CCC6)CC5)cc4)c3C2=O)C(=O)N1` (stereo not shown) [Cpd 23, 4-(4-(7-azaspiro[3.5]nonan-7-ylmethyl)benzylamino)-2-(2,6-dioxopiperidin-3-yl)isoindoline-1,3-dione], the IC50 was < 200 nM. To `CCC1CCN(Cc2ccc(CNc3cccc4c3C(=O)N(C3CCC(=O)NC3=O)C4=O)cc2)CC1` (stereo not shown) [Cpd 22, 2-(2,6-dioxopiperidin-3-yl)-4-(4-((4-ethylpiperidin-1-yl)methyl)benzylamino)isoindoline-1,3-dione] belongs 200 to 500 nM; to `O=C1CCC(N2C(=O)c3cccc(NCc4ccc(CN5CC6(COC6)C5)cc4F)c3C2=O)C(=O)N1` (stereo not shown) [Cpd 226, 4-(4-(2-oxa-6-azaspiro[3.3]heptan-6-ylmethyl)-2-fluorobenzylamino)-2-(2,6-dioxopiperidin-3-yl)isoindoline-1,3-dione], 200 to 500 nM; to `Cc1cc(CNc2cccc3c2C(=O)N(C2CCC(=O)NC2=O)C3=O)ccc1CN1CC2(CCCCC2)C1` (stereo not shown) [Cpd 75, 4-(4-(2-azaspiro[3.5]nonan-2-ylmethyl)-3-methylbenzylamino)-2-(2,6-dioxopiperidin-3-yl)isoindoline-1,3-dione], < 200 nM. On to `CCC1(OC)CCN(Cc2ccc(CNc3cccc4c3C(=O)N(C3CCC(=O)NC3=O)C4=O)c(F)c2)CC1` (stereo not shown) [Cpd 156, 2-(2,6-dioxopiperidin-3-yl)-4-(4-((4-ethyl-4-methoxypiperidin-1-yl)methyl)-2-fluorobenzylamino)isoindoline-1,3-dione], for which the IC50 is < 200 nM. In the case of `N#Cc1ccc(OC2CN(Cc3ccc(CNc4cccc5c4C(=O)N(C4CCC(=O)NC4=O)C5=O)cc3)C2)cc1` (stereo not shown) [Cpd 74, 4-(1-(4-((2-(2,6-dioxopiperidin-3-yl)-1,3-dioxoisoindolin-4-ylamino)methyl)benzyl)azetidin-3-yloxy)benzonitrile] it was 501 to 750 nM. In the case of `CCc1nsc(N2CCN(Cc3ccc(CNc4cccc5c4C(=O)N(C4CCC(=O)NC4=O)C5=O)cc3)CC2)n1` (stereo not shown) [Cpd 197, 2-(2,6-dioxopiperidin-3-yl)-4-(4-((4-(3-ethyl-1,2,4-thiadiazol-5-yl)piperazin-1-yl)methyl)benzylamino)isoindoline-1,3-dione] it was < 200 nM; in that of `O=C1CCC(N2C(=O)c3cccc(NCc4ccc(CN5CCC6(CCCO6)CC5)c(F)c4)c3C2=O)C(=O)N1` (stereo not shown) [Cpd 147, 4-(4-(1-oxa-8-azaspiro[4.5]decan-8-ylmethyl)-3-fluorobenzylamino)-2-(2,6-dioxopiperidin-3-yl)isoindoline-1,3-dione], 200 to 500 nM; in that of `O=C1CCC(N2C(=O)c3cccc(NCc4ccc(CN5CCN(c6noc7ccccc67)CC5)cc4F)c3C2=O)C(=O)N1` (stereo not shown) [Cpd 176, 4-(4-((4-(benzo[d]isoxazol-3-yl)piperazin-1-yl)methyl)-2-fluorobenzylamino)-2-(2,6-dioxopiperidin-3-yl)isoindoline-1,3-dione], < 200 nM. To `O=C1CCC(N2C(=O)c3cccc(NCc4ccc(CN5CCN(c6ncccc6F)CC5)cc4)c3C2=O)C(=O)N1` (stereo not shown) [Cpd 30, 2-(2,6-dioxopiperidin-3-yl)-4-(4-((4-(3-fluoropyridin-2-yl)piperazin-1-yl)methyl)benzylamino)isoindoline-1,3-dione] belongs < 200 nM. As to `CC(N1CCN(Cc2ccc(CNc3cccc4c3C(=O)N(C3CCC(=O)NC3=O)C4=O)cc2)CC1)C(F)(F)F` (stereo not shown) [Cpd 71, 2-(2,6-dioxopiperidin-3-yl)-4-(4-((4-(1,1,1,-trifluoropropan-2-yl)piperazin-1-yl)methyl)benzylamino)isoindoline-1,3-dione], the IC50 was < 200 nM. To `N#Cc1ccc(N2CCN(Cc3ccc(CNc4cccc5c4C(=O)N(C4CCC(=O)NC4=O)C5=O)cc3)CC2)nc1` (stereo not shown) [Cpd 29, 6-(4-(4-((2-(2,6-dioxopiperidin-3-yl)-1,3-dioxoisoindolin-4-ylamino)methyl)benzyl)piperazin-1-yl)nicotinonitrile] belongs 200 to 500 nM; to `O=C1CCC(N2C(=O)c3cccc(NCc4ccc(CN5CC(c6ccccn6)C5)cc4)c3C2=O)C(=O)N1` (stereo not shown) [Cpd 16, 2-(2,6-dioxopiperidin-3-yl)-4-(4-((3-(pyridin-2-yl)azetidin-1-yl)methyl)benzylamino)isoindoline-1,3-dione], < 200 nM. As for `Cc1cc(CNc2cccc3c2C(=O)N(C2CCC(=O)NC2=O)C3=O)ccc1CN1CCC2(CCOCC2)CC1` (stereo not shown) [Cpd 236, 4-(4-(3-oxa-9-azaspiro[5.5]undecan-9-ylmethyl)-3-methylbenzylamino)-2-(2,6-dioxopiperidin-3-yl)isoindoline-1,3-dione], the IC50 is < 200 nM. To `NC(=O)c1ccc(N2CCN(Cc3ccc(CNc4cccc5c4C(=O)N(C4CCC(=O)NC4=O)C5=O)cc3F)CC2)cn1` (stereo not shown) [Cpd 98, 5-(4-(4-((2-(2,6-dioxopiperidin-3-yl)-1,3-dioxoisoindolin-4-ylamino)methyl)-2-fluorobenzyl)piperazin-1-yl)picolinamide] belongs < 200 nM; to `CN(C)C(=O)c1ccc(N2CCN(Cc3ccc(CNc4cccc5c4C(=O)N(C4CCC(=O)NC4=O)C5=O)cc3)CC2)cn1` (stereo not shown) [Cpd 55, 5-(4-(4-((2-(2,6-dioxopiperidin-3-yl)-1,3-dioxoisoindolin-4-ylamino)methyl)benzyl)piperazin-1-yl)-N,N-dimethylpicolinamide], 200 to 500 nM. To `NC(=O)c1cccc(N2CCN(Cc3ccc(CNc4cccc5c4C(=O)N(C4CCC(=O)NC4=O)C5=O)c(F)c3)CC2)n1` (stereo not shown) [Cpd 184, 6-(4-(4-((2-(2,6-dioxopiperidin-3-yl)-1,3-dioxoisoindolin-4-ylamino)methyl)-3-fluorobenzyl)piperazin-1-yl)picolinamide] belongs < 200 nM; to `O=C1CCC(N2C(=O)c3cccc(NCc4ccc(CN5CCN(c6ccc(F)cc6)CC5)cc4)c3C2=O)C(=O)N1` (stereo not shown) [Cpd 2, 2-(2,6-dioxopiperidin-3-yl)-4-(4-((4-(4-fluorophenyl)piperazin-1-yl)methyl)benzylamino)isoindoline-1,3-dione], 501 to 750 nM; to `Cc1cc(CN2CCC(C(C)(C)C)CC2)ccc1CNc1cccc2c1C(=O)N(C1CCC(=O)NC1=O)C2=O` (stereo not shown) [Cpd 96, 4-(4-((4-tert-butylpiperidin-1-yl)methyl)-2-methylbenzylamino)-2-(2,6-dioxopiperidin-3-yl)isoindoline-1,3-dione], < 200 nM. In the case of `N#Cc1cccc(N2CCN(Cc3ccc(CNc4cccc5c4C(=O)N(C4CCC(=O)NC4=O)C5=O)cc3)CC2)n1` (stereo not shown) [Cpd 138, 6-(4-(4-((2-(2,6-dioxopiperidin-3-yl)-1,3-dioxoisoindolin-4-ylamino)methyl)benzyl)piperazin-1-yl)picolinonitrile] it was 501 to 750 nM.

With `CC(C)COC1CCN(Cc2ccc(CNc3cccc4c3C(=O)N(C3CCC(=O)NC3=O)C4=O)cc2)CC1` (stereo not shown) [Cpd 125, 2-(2,6-dioxopiperidin-3-yl)-4-(4-((4-isobutoxypiperidin-1-yl)methyl)benzylamino)isoindoilne-1,3-dione], the IC50 is 200 to 500 nM.
